The test system of this assay is TGF-β1-stimulated human fibroblasts. The assay can be described thus: Collagen I production from TGF-β1-stimulated human fibroblasts (ELISA). The format is cell-based. Conditions: for inhibition of collagen I secretion: at a concentration of 5-10 mM; for % Control Collagen Production: 30 min pretreatment, 7 ng/mL TGF-β1 for 48 hrs, collagen I per μg cell lysate. As to the method:
In vitro fibrosis is assessed by measuring collagen synthesis after treatment of fibroblast cells with a profibrotic stimuli such as TGF-β1 or bleomycin. Collagen secretion into the media can be quantified in conditioned media using an appropriate ELISA kit.
Confluent monolayers of human fibroblasts, plated onto duplicate 35 mm dishes, were pretreated with various concentrations of compounds 2, 6, and 7 for 30 min followed by stimulation of the cells with 7 ng/mL TGF-β1 for 48 hrs. At the end of the experiment, conditioned media were collected and assessed for the presence of secreted collagen I, whereas cells were collected and lysed. Collagen I secretion was quantified using an ELISA kit from R&D Systems per the manufacturer's instructions and expressed as arbitrary absorbance units per μg of cell lysate. In Table 2, results are shown as % Control Collagen Production, defined as the amount of collagen I secreted per μg of cell lysate from fibroblast cultures stimulated with TGF-β1 in the absence of an inhibitor.
For orientation: ELISA stands for enzyme-linked immunosorbent assay.

Turning to `CC(=O)C(C)CC(Cc1ccccc1)C(=O)O` (stereo not drawn) [Compound 2, 2-benzyl-4-methyl-5-oxohexanoic acid], the “inhibition of collagen I secretion” value is listed as “completely inhibit”. Besides, the “% Control Collagen Production” value (compound concentration 5 mM) is recorded as 4%.
Regarding `CC(CCC(=O)O)C(=O)c1ccccc1` (stereo not drawn) [Compound 6, 4-methyl-5-oxo-5-phenylpentanoic acid], the “inhibition of collagen I secretion” value is reported as “completely inhibit”. The “% Control Collagen Production” value (compound concentration 5 mM) came out at 77%. Also, the “% Control Collagen Production” value (compound concentration 10 mM) was determined as 2%.
Take `CC(=O)C(CCC(=O)O)c1ccccc1` (stereo not drawn) [Compound 7, 5-oxo-4-phenylhexanoic acid]: the “inhibition of collagen I secretion” value is listed as “completely inhibit”. In addition, under “compound concentration 2 mM”, the “% Control Collagen Production” value is recorded as 150%. In addition, the “% Control Collagen Production” value (compound concentration 5 mM) was determined as 41%. In addition, the “% Control Collagen Production” value (compound concentration 10 mM) came to 2%.

Source of the values: patent US10941109B2, “Compositions and methods of treatment using a BCAT1 inhibitor” (Ergon Pharmaceuticals, LLC, priority 2011, dated 2021).
